Test results reported in EP3782997A1, “FUSED PYRIMIDINE COMPOUNDS AND PHARMACEUTICAL COMPOSITIONS THEREOF FOR THE TREATMENT OF FIBROTIC DISEASES” (Galapagos N.V., priority 2019, dated 2021).

What follows are compounds tested against hENPP2 (Homo sapiens, UniProt Q13822) (assay: Human ENPP2 (hENPP2) biochemical assay using LPC as substrate). Conditions: 150 µM LPC (palmitoyl 16:0), 37°C for 30 min.
In short: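 IC50 came from compound series (top 50 µM, 1/3 steps) incubated 30 min at 37°C with 1 or 3 µg/mL final enzyme and palmitoyl LPC added at 150 µM, pH 8.5 Tris buffer with Ca2+. Choline output measured as quinoneimine dye at 555 nm via coupled oxidase/HRP/TOOS detection.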

IC50	Structure (SMILES)
0.01 to 100 nM	C[C@@H]1C[C@@H](N2Cc3cnc(Nc4ccc(C(F)(F)F)cc4)nc3C2)CCN1C(=O)c1ccnc(NS(C)(=O)=O)c1 [compound 190, N-[4-[(2R,4S)-2-methyl-4-[2-[4-(trifluoromethyl)anilino]-5,7-dihydropyrrolo[3,4-d]pyrimidin-6-yl]piperidine-1-carbonyl]-2-pyridyl]methanesulfonamide]
100 to 500 nM	COc1cc(C)cc(Nc2ncc3c(n2)CN([C@H]2CCN(C(=O)c4ccnc(NS(C)(=O)=O)c4)[C@H](C)C2)C3)c1 [compound 191, N-[4-[(2R,4S)-4-[2-(3-methoxy-5-methyl-anilino)-5,7-dihydropyrrolo[3,4-d]pyrimidin-6-yl]-2-methyl-piperidine-1-carbonyl]-2-pyridyl]methanesulfonamide]
> 1000 nM	C[C@@H]1C[C@@H](N2Cc3cnc(Nc4ccc(F)cc4)nc3C2)CCN1C(=O)c1ccnc(NS(C)(=O)=O)c1 [compound 192, N-[4-[(2R,4S)-4-[2-(4-fluoroanilino)-5,7-dihydropyrrolo[3,4-d]pyrimidin-6-yl]-2-methyl-piperidine-1-carbonyl]-2-pyridyl]methanesulfonamide]
> 1000 nM	COc1cccc(Nc2ncc3c(n2)CN([C@H]2CCN(C(=O)c4ccnc(NS(C)(=O)=O)c4)[C@H](C)C2)C3)c1 [compound 193, N-[4-[(2R,4S)-4-[2-(3-methoxyanilino)-5,7-dihydropyrrolo[3,4-d]pyrimidin-6-yl]-2-methyl-piperidine-1-carbonyl]-2-pyridyl]methanesulfonamide]
> 1000 nM	Cc1cc(C)cc(Nc2ncc3c(n2)CN(C2(C)CCN(C(=O)c4cc5nn[nH]c5cc4F)CC2)C3)c1 [compound 194, [4-[2-(3,5-dimethylanilino)-5,7-dihydropyrrolo[3,4-d]pyrimidin-6-yl]-4-methyl-1-piperidyl]-(6-fluoro-1H-benzotriazol-5-yl)methanone]
0.01 to 100 nM	C[C@@H]1C[C@H](N2Cc3cnc(Nc4ccc(S(F)(F)(F)(F)F)cc4)nc3C2)CCN1C(=O)c1cc2nn[nH]c2cc1F [compound 195, (6-fluoro-1H-benzotriazol-5-yl)-[(2R,4R)-2-methyl-4-[2-[4-(pentafluoro-λ^6-sulfanyl)anilino]-5,7-dihydropyrrolo[3,4-d]pyrimidin-6-yl]-1-piperidyl]methanone]
0.01 to 100 nM	C[C@@H]1C[C@@H](N2Cc3cnc(Nc4ccc(S(F)(F)(F)(F)F)cc4)nc3C2)CCN1C(=O)c1cc2nn[nH]c2cc1F [compound 196, (6-fluoro-1H-benzotriazol-5-yl)-[(2R,4S)-2-methyl-4-[2-[4-(pentafluoro-λ^6-sulfanyl)anilino] -5,7-dihydropyrrolo[3,4-d]pyrimidin-6-yl]-1-piperidyl]methanone]
0.01 to 100 nM	COc1cc(F)cc(Nc2ncc3c(n2)CN([C@@H]2CCN(C(=O)c4cc5nn[nH]c5cc4F)[C@H](C)C2)C3)c1 [compound 197, (6-fluoro-1H-benzotriazol-5-yl)-[(2R,4R)-4-[2-(3-fluoro-5-methoxy-anilino)-5,7-dihydropyrrolo[3,4-d]pyrimidin-6-yl]-2-methyl-1-piperidyl] methanone]
> 1000 nM	Cc1cc(C)cc(Nc2ncc3c(n2)CN([C@@H]2CCN(C(=O)c4ccnc(N)c4)[C@H](C)C2)C3)c1 [compound 198, (2-amino-4-pyridyl)-[(2R,4R)-4-[2-(3,5-dimethylanilino)-5,7-dihydropyrrolo[3,4-d]pyrimidin-6-yl]-2-methyl-1-piperidyl]methanone]
> 1000 nM	Cc1cc(C)cc(Nc2ncc3c(n2)CCN(C2CCN(C(=O)C4CCN(c5cc6nn[nH]c6cc5C)CC4)CC2)C3)c1 [compound 199, [4-[2-(3,5-dimethylanilino)-7,8-dihydro-5H-pyrido[4,3-d]pyrimidin-6-yl]-1-piperidyl]-[1-(6-methyl-1H-benzotriazol-5-yl)-4-piperidyl]methanone]
0.01 to 100 nM	COc1cc(Nc2ncc3c(n2)CN([C@@H]2CCN(C(=O)c4ccnc(NS(C)(=O)=O)c4)[C@H](C)C2)C3)cc(OC)c1 [compound 200, N-[4-[(2R,4R)-4-[2-(3,5-dimethoxyanilino)-5,7-dihydropyrrolo[3,4-d]pyrimidin-6-yl]-2-methyl-piperidine-1-carbonyl]-2-pyridyl]methanesulfonamide]
0.01 to 100 nM	CS(=O)(=O)Nc1cc(C(=O)N2CCC(N3Cc4cnc(Nc5ccc(C(F)(F)F)cc5)nc4C3)CC2)ccn1 [compound 201, N-[4-[4-[2-[4-(trifluoromethyl)anilino]-5,7-dihydropyrrolo[3,4-d]pyrimidin-6-yl]piperidine-1-carbonyl]-2-pyridyl]methanesulfonamide]
0.01 to 100 nM	Cc1cc(C)cc(Nc2ncc3c(n2)CN(C2CCN(C(=O)c4ccnc(NS(C)(=O)=O)c4)CC2)C3)c1 [compound 202, N-[4-[4-[2-(3,5-dimethylanilino)-5,7-dihydropyrrolo[3,4-d]pyrimidin-6-yl]piperidine-1-carbonyl]-2-pyridyl]methanesulfonamide]
0.01 to 100 nM	Cc1cccc(Nc2ncc3c(n2)CN([C@@H]2CCN(C(=O)c4ccnc(NS(C)(=O)=O)c4)[C@H](C)C2)C3)c1 [compound 203, N-[4-[(2R,4R)-2-methyl-4-[2-(3-methylanilino)-5,7-dihydropyrrolo[3,4-d]pyrimidin-6-yl]piperidine-1-carbonyl]-2-pyridyl]methanesulfonamide]
100 to 500 nM	COc1cc(F)cc(Nc2ncc3c(n2)CN([C@@H]2CCN(C(=O)c4ccnc(NS(C)(=O)=O)c4)[C@H](C)C2)C3)c1 [compound 204, N-[4-[(2R,4R)-4-[2-(3-fluoro-5-methoxy-anilino)-5,7-dihydropyrrolo[3,4-d]pyrimidin-6-yl] -2-methyl-piperidine-1-carbonyl]-2-pyridyl]methanesulfonamide]
0.01 to 100 nM	C[C@@H]1C[C@H](N2Cc3cnc(Nc4ccc(OC(F)(F)F)cc4)nc3C2)CCN1C(=O)c1ccnc(NS(C)(=O)=O)c1 [compound 205, N-[4-[(2R,4R)-2-methyl-4-[2-[4-(trifluoromethoxy)anilino]-5,7-dihydropyrrolo[3,4-d]pyrimidin-6-yl]piperidine-1-carbonyl]-2-pyridyl]methanesulfonamide]
> 1000 nM	Cc1cc(C)cc(Nc2ncc3c(n2)CN([C@@H]2CCN(C(=O)c4cccc(NS(C)(=O)=O)c4)[C@H](C)C2)C3)c1 [compound 206, N-[3-[(2R,4R)-4-[2-(3,5-dimethylanilino)-5,7-dihydropyrrolo[3,4-d]pyrimidin-6-yl]-2-methyl-piperidine-1-carbonyl]phenyl]methanesulfonamide]
0.01 to 100 nM	Cc1cc(Nc2ncc3c(n2)CN([C@@H]2CCN(C(=O)c4ccnc(NS(C)(=O)=O)c4)[C@H](C)C2)C3)ccc1F [compound 207, N-[4-[(2R,4R)-4-[2-(4-fluoro-3-methyl-anilino)-5,7-dihydropyrrolo[3,4-d]pyrimidin-6-yl]-2-methyl-piperidine-1-carbonyl]-2-pyridyl]methanesulfonamide]
0.01 to 100 nM	Cc1cc(C)cc(Nc2ncc3c(n2)CN([C@@H]2CCN(C(=O)c4cc(NS(C)(=O)=O)ncc4F)[C@H](C)C2)C3)c1 [compound 208, N-[4-[(2R,4R)-4-[2-(3,5-dimethylanilino)-5,7-dihydropyrrolo[3,4-d]pyrimidin-6-yl]-2-methyl-piperidine-1-carbonyl]-5-fluoro-2-pyridyl]methanesulfonamide]
500 to 1000 nM	CC(=O)Nc1cc(C(=O)N2CC[C@@H](N3Cc4cnc(Nc5cc(C)cc(C)c5)nc4C3)C[C@H]2C)ccn1 [compound 209, N-[4-[(2R,4R)-4-[2-(3,5-dimethylanilino)-5,7-dihydropyrrolo[3,4-d]pyrimidin-6-yl]-2-methyl-piperidine-1-carbonyl]-2-pyridyl]acetamide]
0.01 to 100 nM	CCS(=O)(=O)Nc1cc(C(=O)N2CC[C@@H](N3Cc4cnc(Nc5cc(C)cc(C)c5)nc4C3)C[C@H]2C)ccn1 [compound 210, N-[4-[(2R,4R)-4-[2-(3,5-dimethylanilino)-5,7-dihydropyrrolo[3,4-d]pyrimidin-6-yl]-2-methyl-piperidine-1-carbonyl]-2-pyridyl]ethanesulfonamide]
> 1000 nM	Cc1cc(C)cc(Nc2ncc3c(n2)CN([C@@H]2CCN(C(=O)c4cncc(NS(C)(=O)=O)c4)[C@H](C)C2)C3)c1 [compound 211, N-[5-[(2R,4R)-4-[2-(3,5-dimethylanilino)-5,7-dihydropyrrolo[3,4-d]pyrimidin-6-yl]-2-methyl-piperidine-1-carbonyl]-3-pyridyl]methanesulfonamide]
100 to 500 nM	Cc1cc(C)cc(Nc2ncc3c(n2)CN([C@@H]2CCN(C(=O)c4ccnc(NS(=O)(=O)C(F)(F)F)c4)[C@H](C)C2)C3)c1 [compound 212, N-[4-[(2R,4R)-4-[2-(3,5-dimethylanilino)-5,7-dihydropyrrolo[3,4-d]pyrimidin-6-yl]-2-methyl-piperidine-1-carbonyl]-2-pyridyl]-1,1,1-trifluoro-methanesulfonamide]
0.01 to 100 nM	C[C@@H]1C[C@H](N2Cc3cnc(Nc4cc(F)cc(Cl)c4)nc3C2)CCN1C(=O)c1ccnc(NS(C)(=O)=O)c1 [compound 213, N-[4-[(2R,4R)-4-[2-(3-chloro-5-fluoro-anilino)-5,7-dihydropyrrolo[3,4-d]pyrimidin-6-yl]-2-methyl-piperidine-1-carbonyl]-2-pyridyl]methanesulfonamide]
100 to 500 nM	C[C@@H]1C[C@@H](N2Cc3cnc(Nc4cc(F)cc(Cl)c4)nc3C2)CCN1C(=O)c1ccnc(NS(C)(=O)=O)c1 [compound 214, N-[4-[(2R,4S)-4-[2-(3-chloro-5-fluoro-anilino)-5,7-dihydropyrrolo[3,4-d]pyrimidin-6-yl]-2-methyl-piperidine-1-carbonyl]-2-pyridyl]methanesulfonamide]
0.01 to 100 nM	Cc1cc(Nc2ncc3c(n2)CN([C@@H]2CCN(C(=O)c4ccnc(NS(C)(=O)=O)c4)[C@H](C)C2)C3)ccc1C(F)(F)F [compound 215, N-[4-[(2R,4R)-2-methyl-4-[2-[3-methyl-4-(trifluoromethyl)anilino]-5,7-dihydropyrrolo[3,4-d]pyrimidin-6-yl]piperidine-1-carbonyl]-2-pyridyl]methanesulfonamide]
